The text below walks through data of patent publication US10287298B2, “Nitrogen-containing analogs of salinomycin, synthesis and use against cancer stem cells and malaria” (Centre National de la Recherche Scientifique (CNRS), priority 2014, dated 2019).

Data set [1] deals with HMLER CD24− cells. The data set is described as follows: Cell viability assay (CellTiter-Blue), IC50 assessment. In kind it is cell-based, Human. As to conditions: for IC50: Homo sapiens, read-out: IC50 CD24−. The procedure: (§1) FIG. 1 represents viability of HMLER CD24− cells (full line) and HMLER CD24+ cells (dotted line) at different concentration of salinomycine (1A), AM5 […] or AM13 (1D).
(§2) Cell viability assay was carried out by plating 1000 cells per well in 96-well plates. NAC (2 mM, A9165 Sigma) or DFO (1 mM) were pretreated 2 hours prior to the compound treatment. CellTiter-Blue® Reagent (Promega; G3582) (20 μl/well) was added after 24, 48, or 72 hours treatment and cells were incubated for 1 hour before recording fluorescence (560(20)Ex/590(10)Em) using a Perkin Elmer Wallac 1420 Victor2 Microplate Reader.

Data set [2] is described as follows: Toxicity assessment (histology, body weight). Format: in vivo, mice. Particulars: effective dose. From the text:
FIG. 15 is a graph representing the mice body-weight during treatment with AM5. Error bars for mice body weight represent s.d. and correspond to correspond to five animals per group.
Histology. Organs from mice were removed at time of sacrifice. For morphological analyses, organs were fixed with 4% paraformaldehyde, paraffin embedded, and 4-μm sections were stained with hematoxylin and eosin (H&E). Sections were scanned at high resolution using a slide scanner (NanoZoomer 2.0-HT, Hamamatsu, Massy, France).

In data set [3] the test system is HMLER CD24+ cells. Description: Cell viability assay (CellTiter-Blue), IC50 assessment. Particulars: Homo sapiens, read-out: IC50 CD24+. In kind it is cell-based. The procedure:
as §1, §2
In general terms: Resazurin is reduced to fluorescent resorufin, in cell work by metabolically active cells.

Data set [4] deals with MCF-7 xenograft. The data set is described as follows: Xenograft tumor formation. Particulars: 3 mg per kg body weight per day, intra peritoneal. Format: in vivo, mice. The procedure:
Human breast cancer cell line MCF-7 cells cultures were collected, enzymatically dissociated, washed in PBS, and resuspended in PBS/Matrigel mixture (1:1 volume). 0.1 ml of this mixture was then implanted in the mammary fat pad of 5-week-old female AthymicNude-Fox1nu mice (Harlan, France). The mice were maintained in individually-ventilated cages (Tecniplast, France) under constant temperature and humidity; all experiments were performed under laminar flow (Tecniplast France). The mice received estradiol supplementation (0.4 mg/kg) in the same day and 7th day from cell injection, and were observed and palpated for tumor appearance. The mice received Salinomycine analogue (here AM5, 3 mg per kg body weight per day, intra peritoneal injection) every 5 opened days of the week for 33 days. Tumor growth was measured weekly using calipers. Tumor volume was determined using the standard formula: L×W2×0.52, where L and W are the longest and shortest diameters, respectively. […]
Xenograft tumor formation experiments: MCF-7 cell cultures were collected, enzymatically dissociated, washed with PBS, and re-suspended in a PBS/Matrigel mixture (1:1 v/v). […] Tumor growth was measured weekly using calipers. Tumor volume was determined using the standard formula: L×W2×0.52, where L and W are the longest and shortest diameters, respectively. […]

Data set [5] has as its system MDA-MB-231 cells. Description: Dead cells by DIOC6(3)/DAPI test with cathepsine B inhibitor. In kind it is cell-based, Human. As to conditions: 500 nM; COA74-Me 30 μM; 48 h, 96 h, 108 h. The procedure:
From the treatment, dead cells were assessed by DIOC6(3)/DAPI test and analyzed by flow cytometry.

Data set [6] has as its system HMLER CD24low cells. The data set is described as follows: Reactive Oxygen Species (ROS) levels by flow cytometry (CM-H2DCF-DA). In kind it is cell-based, Human. As to conditions: cells treated for 48 h. The procedure:
Reactive Oxygen Species (ROS) levels were measured by flow cytometry or by confocal scanning immunofluorescence microscopy using CM-H2DCF-DA (C6827, invitrogen). Briefly, U2OS and HMLER CD24low cells were treated as indicated in FIG. 11 (30 nM, 500 nM or 1 μM of salinomycine, AM5 or AM23 or untreated during 48 h). Then, these cells were trypsined and incubated with 5 μM CM-H2DCF-DA at 37° C. for 40 min, washed once with PBS and were counterstained with DAPI (0.5 μg/ml) to exclude non-viable cells. The mean fluorescence intensity was determined as ROS production by flow cytometry with LSRFortessa™ cytometer (BD Bioscience, San Jose, Calif.). For immunofluorescence microscopy analysis, cells were seeded on coverslips and were treated with salinomycine derivatives (injection in culture medium then treatment during 24 h, 48 h and 72 h). LysoTracker® Red DND-99 (L-7528, Life technologies) was used to visualize lysosomes. Then, cells were fixed with 4% PFA/PBS. DAPI was used to visualize nuclear DNA. Cell images were obtained using a Deltavision real-time microscope (Applied Precision) or an ApoTome.2 microscope (Zeiss). ImageJ was used for further image processing.
FACS analysis of ROS in cells treated for 48 h is represented in FIG. 17.
(Flow cytometry measures light scatter and fluorescence of single cells or particles in a stream.)

Data set [7] concerns TICs. Particulars: cited from earlier work.

Entries after “also recorded” stand apart in the source; their conditions may differ. Like-named read-outs stand apart in the source and are kept apart here.

One may read the IC50 as the concentration at which inhibition is half-maximal. Take `C#CCN[C@@H]1C=C[C@]2(O[C@H]([C@@H](CC)C(=O)[C@@H](C)[C@@H](O)[C@H](C)C3O[C@@H](C(CC)C(=O)O)CC[C@@H]3C)[C@@H](C)C[C@H]2C)O[C@@]12CC[C@@](C)([C@H]1CC[C@](O)(CC)[C@H](C)O1)O2` (stereo partly shown) [AM5, Sal-Propargylamine]: the half-maximal inhibitory concentration (IC50) in data set [1] (HMLER CD24− cells, cell viability) was 84.9 nM; in data set [3] (HMLER CD24+ cells, cell viability), 3510 nM. The “activity against CD24 cells compared with salinomycine” value in data set [1] (comparison of the IC50 results) was “significantly improved activity”. In addition, the “body weight throughout treatment” value in data set [2] is reported as “constant body weight”. Also, in data set [2] (H&E histology), the “generic toxicity (integrity of peripheral tissues)” value is reported as “No generic toxicity was observed”. Besides, the “tumor volume and tumor weight” value in data set [4] (33 days) is reported as “lower”. In data set [4] (MCF-7 xenograft-bearing mice), the tumor growth entry was “inhibits breast cancer tumor growth; also recorded: prevented tumor growth”. Also, the “death of MDA-MB-231 cells in combination with cathepsine B inhibition” value in data set [5] is on record as “combine themselves to induce the death”. Moreover, the “ROS production under pharmacological inhibition of Cathepsin B” value in data set [6] is “prevents AM5 from inducing ROS production”.

Turning to `CCC(C(=O)O)[C@H]1CC[C@H](C)C([C@@H](C)[C@H](O)[C@H](C)C(=O)[C@H](CC)[C@H]2O[C@]3(C=C[C@@H](O)[C@]4(CC[C@@](C)([C@H]5CC[C@](O)(CC)[C@H](C)O5)O4)O3)[C@H](C)C[C@@H]2C)O1` (stereo partly shown) [Salinomycine, Salinomycin], the values for the half-maximal inhibitory concentration (IC50) in data set [1] and in data set [3] were 1560 nM and 11000 nM, respectively. The “death of MDA-MB-231 cells in combination with cathepsine B inhibition” value in data set [5] is listed as “combine themselves to induce the death”. Also, the “efficacy in reducing the amount of TICs relative to paclitaxel” value in data set [7] is reported as 100 fold.
